pKd: −log10 of the molar value.
What was measured:
NFR1 kinase domain = molecular target: T1, NFR1 kinase domain (Lotus japonicus, UniProt Q70KR7); experiment: radioactive kinase assay, autoradiogram; assay type: biochemical; conditions: labelled compound ([gamma-32P]ATP); 100 µM ATP, MnCl2, MgCl2, HEPES pH 7, room temperature; NFR5 kinase domain as acceptor
T1 construct: intracellular kinase domain, pET-32 Ek/LIC, E. coli Rosetta 2, tag cleaved with TEV
T1 sequence (Q70KR7 254-623 limits assumed): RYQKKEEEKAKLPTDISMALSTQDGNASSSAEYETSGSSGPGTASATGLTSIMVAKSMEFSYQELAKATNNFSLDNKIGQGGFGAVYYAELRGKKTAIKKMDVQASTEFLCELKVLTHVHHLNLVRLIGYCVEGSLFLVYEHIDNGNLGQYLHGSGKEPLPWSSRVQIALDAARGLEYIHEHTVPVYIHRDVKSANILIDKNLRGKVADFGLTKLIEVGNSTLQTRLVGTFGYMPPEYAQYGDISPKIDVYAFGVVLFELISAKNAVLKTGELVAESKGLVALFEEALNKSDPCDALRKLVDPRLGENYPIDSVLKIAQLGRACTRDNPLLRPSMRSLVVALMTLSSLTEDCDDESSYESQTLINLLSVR

NFRe kinase domain = molecular target: T2, NFRe kinase domain (Lotus japonicus, UniProt A8WHB6); experiment: radioactive kinase assay, autoradiogram; assay type: biochemical; conditions: labelled compound ([gamma-32P]ATP); 100 µM ATP, MnCl2, MgCl2, HEPES pH 7, room temperature; autophosphorylation, myelin basic protein or NFR5 kinase domain as acceptor
T2 construct: gene nfr1c

AtCERK1 ectodomain = molecular target: T3, AtCERK1 ectodomain (Arabidopsis thaliana, UniProt A8R7E6); experiment: biolayer interferometry, steady-state; assay type: binding; conditions: labelled compound; biotinylated (GlcNAc)5 immobilised on streptavidin sensor, protein in solution; PBS pH 7.4, 500 mM NaCl, 0.01% Tween20
T3 construct: gene CERK1; ectodomain only (borders from reported crystal structure), gp67 signal peptide, C-terminal His6, Sf9 insect cells, glycosylated, ~35 kDa
T3 sequence (A8R7E6 24-232 limits assumed): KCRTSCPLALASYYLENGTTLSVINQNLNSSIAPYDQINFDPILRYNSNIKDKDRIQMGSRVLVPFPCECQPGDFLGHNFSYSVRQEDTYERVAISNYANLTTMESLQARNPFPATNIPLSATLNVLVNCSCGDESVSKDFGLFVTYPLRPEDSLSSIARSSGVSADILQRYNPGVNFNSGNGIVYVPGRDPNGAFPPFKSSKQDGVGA

T2 sequence (A8WHB6 entry or part of it): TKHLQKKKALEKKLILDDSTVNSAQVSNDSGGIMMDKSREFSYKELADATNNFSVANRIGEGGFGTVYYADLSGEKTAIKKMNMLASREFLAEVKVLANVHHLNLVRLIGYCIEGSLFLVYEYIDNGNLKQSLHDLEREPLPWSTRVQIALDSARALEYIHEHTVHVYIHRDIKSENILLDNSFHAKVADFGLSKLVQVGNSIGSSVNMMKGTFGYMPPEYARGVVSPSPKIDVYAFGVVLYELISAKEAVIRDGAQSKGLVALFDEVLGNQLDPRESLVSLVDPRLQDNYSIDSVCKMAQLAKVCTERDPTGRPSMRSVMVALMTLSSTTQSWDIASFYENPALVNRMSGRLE

SMILES | radioactive kinase assay, autoradiogram (NFR1 kinase domain) | radioactive kinase assay, autoradiogram (NFRe kinase domain) | pKd (AtCERK1 ectodomain)
Nc1ncnc2c1ncn2[C@@H]1O[C@H](COP(=O)(O)OP(=O)(O)OP(=O)(O)O)[C@@H](O)[C@H]1O [ATP] | NFR1 kinase serves as positive control for NFR5 kinase transphosphorylation | NFRe kinase transphosphorylated the myelin basic protein (MBP) substrate and autophosphorylated | 
CC(=O)N[C@@H]1[C@@H](O)[C@H](O[C@@H]2O[C@H](CO)[C@@H](O[C@@H]3O[C@H](CO)[C@@H](O[C@@H]4O[C@H](CO)[C@@H](O[C@@H]5O[C@H](CO)[C@@H](O)[C@H](O)[C@H]5NC(C)=O)[C@H](O)[C@H]4NC(C)=O)[C@H](O)[C@H]3NC(C)=O)[C@H](O)[C@H]2NC(C)=O)[C@@H](CO)O[C@H]1O [CO5] |  |  | 4.23
